Experimental data as given in patent publication EP1064944A1, “Protein kinase N inhibitor comprising Fasudil” (priority 1999, dated 2001).
pKi: −log10 of the molar value.

Key:
ROCK = ROCK (Homo sapiens, UniProt Q13464); experiment: ROCK inhibition (from Table 1 of Nature vol. 389, p. 991); format: biochemical; conditions: based on the Ki values of Table 1 of Nature vol. 389, p. 991
Source text: According to Table 1 of Nature vol. […] 389, p. 991/30 October 1997 based on the Ki values.

[1] = target: human-recombinant protein kinase N (Homo sapiens, UniProt Q16512); experiment: Measurement of inhibition activity of protein kinase N (PKN); format: biochemical
Method: The PKN reaction was carried out in 50 µl reaction buffer (20mM Tris HCI pH 7.5, 8mM MgCl2) containing (i) 40µM PKCα peptide ([…]) as a substrate of PKN, (ii) 1 µM GTPγS form GST-RhoA (prepared by the method of Method in ENZYMOLOGY Vol. 256 Small GTPases and Their Regulators Part B Rho Family P.3-10), (iii) 50µM, 20µM, 10µM and 5µM (as the final concentration of the reaction mixture) of ATP and 0.5µl of [γ-^32P] ATP (1.11 TBg/mmol, 74MBg/ml; supplied by NEN™ Life Science Product, Inc.), and (iv) a purified human-recombinant protein kinase N (prepared by using a Baculovirus expression system), in the presence of or in the absence of 1 µM of hexahydro-1-(5-isoquinolinesulfonyl)-1H-1,4-diazepine hydrochloride (Fasudil Hydrochloride). 30µl of the reaction mixture was spotted onto Whatman paper P81 (supplied by Whatman International Ltd.) after the incubation for 10 minutes at 30°C. After the spotting, the spotted Whatman paper was washed with 75mM phosphoric acid 5 times. Then incorporation of ^32P into the PKCα peptide on the washed paper was assessed by scintillation counting. Based on the assessment by scintillation counting, Km value was measured by Lineweaver-Burk plot (method), then K, value was calculated.

[2] = tested on: Rat MM-1 Ascites Hepatoma cells bearing V14 Rho A; experiment: Peritoneal invasion of Rat MM-1 ascites hepatoma cells bearing V14 Rho A (carcinomatous peritonitis model); format: in vivo, male Donryu rats; conditions: after 11 days, 5 rats
Method: MMI ascites hepatoma cells (2x10^7) stably expressing Val 14-RhoA were injected into the peritoneal cavities of male Donryu rats (body weight 100g) (to obtain a model of rat having MM-1 ascites Hepatoma cells bearing V14 Rho A). Fasudil was intravenously delivered at the indicated dose (0, 0.1 mg/Kg, 1 mg/Kg, and 10 mg/Kg) 3 times per day. After 11 days, the animals were sacrificed and (i) tumor nodules and tumor cell dissemination on peritoneum were assessed (This test was conducted by the method which is similar to one described in Nature Medicine Volume 5, Number 2, February 1999, p.223-225 and was conducted with 5 rats at each dose.). In addition, hyperemia of the surface in the peritoneum was also observed.

[3] = 0.1 mg/Kg intravenously 3 times per day
[4] = 1 mg/Kg intravenously 3 times per day
[5] = 10 mg/Kg intravenously 3 times per day

Sequence of human-recombinant protein kinase N (Q16512 whole entry): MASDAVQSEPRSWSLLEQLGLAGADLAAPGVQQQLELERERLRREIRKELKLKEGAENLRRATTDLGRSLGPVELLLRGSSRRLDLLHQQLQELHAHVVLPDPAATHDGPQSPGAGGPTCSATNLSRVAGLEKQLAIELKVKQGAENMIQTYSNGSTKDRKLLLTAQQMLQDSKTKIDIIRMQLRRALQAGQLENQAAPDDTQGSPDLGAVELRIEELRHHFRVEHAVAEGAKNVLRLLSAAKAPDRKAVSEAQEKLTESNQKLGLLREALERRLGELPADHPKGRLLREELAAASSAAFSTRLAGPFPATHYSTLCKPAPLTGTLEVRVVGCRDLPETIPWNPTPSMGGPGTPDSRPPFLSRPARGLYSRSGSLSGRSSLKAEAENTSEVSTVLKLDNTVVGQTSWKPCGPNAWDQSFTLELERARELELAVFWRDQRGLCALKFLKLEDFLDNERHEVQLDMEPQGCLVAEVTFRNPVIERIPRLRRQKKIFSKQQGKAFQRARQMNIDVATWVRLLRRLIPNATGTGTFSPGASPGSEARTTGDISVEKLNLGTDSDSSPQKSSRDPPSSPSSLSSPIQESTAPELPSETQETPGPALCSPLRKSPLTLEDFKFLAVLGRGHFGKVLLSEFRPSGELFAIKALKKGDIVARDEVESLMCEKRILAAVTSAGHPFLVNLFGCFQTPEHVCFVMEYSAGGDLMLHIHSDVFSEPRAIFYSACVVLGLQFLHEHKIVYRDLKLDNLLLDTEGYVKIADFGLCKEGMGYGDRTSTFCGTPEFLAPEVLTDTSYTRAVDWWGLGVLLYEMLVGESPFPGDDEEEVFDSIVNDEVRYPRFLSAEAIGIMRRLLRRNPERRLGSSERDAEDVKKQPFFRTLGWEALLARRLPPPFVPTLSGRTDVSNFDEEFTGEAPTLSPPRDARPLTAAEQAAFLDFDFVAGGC
Sequence of human-recombinant protein kinase N (P61586 whole entry partner): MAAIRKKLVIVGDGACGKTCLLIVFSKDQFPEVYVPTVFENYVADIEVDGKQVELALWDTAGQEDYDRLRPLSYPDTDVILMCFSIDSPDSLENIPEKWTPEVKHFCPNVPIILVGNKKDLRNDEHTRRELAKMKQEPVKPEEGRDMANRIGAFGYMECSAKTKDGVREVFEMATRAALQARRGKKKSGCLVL
Sequence of ROCK (Q13464 whole entry): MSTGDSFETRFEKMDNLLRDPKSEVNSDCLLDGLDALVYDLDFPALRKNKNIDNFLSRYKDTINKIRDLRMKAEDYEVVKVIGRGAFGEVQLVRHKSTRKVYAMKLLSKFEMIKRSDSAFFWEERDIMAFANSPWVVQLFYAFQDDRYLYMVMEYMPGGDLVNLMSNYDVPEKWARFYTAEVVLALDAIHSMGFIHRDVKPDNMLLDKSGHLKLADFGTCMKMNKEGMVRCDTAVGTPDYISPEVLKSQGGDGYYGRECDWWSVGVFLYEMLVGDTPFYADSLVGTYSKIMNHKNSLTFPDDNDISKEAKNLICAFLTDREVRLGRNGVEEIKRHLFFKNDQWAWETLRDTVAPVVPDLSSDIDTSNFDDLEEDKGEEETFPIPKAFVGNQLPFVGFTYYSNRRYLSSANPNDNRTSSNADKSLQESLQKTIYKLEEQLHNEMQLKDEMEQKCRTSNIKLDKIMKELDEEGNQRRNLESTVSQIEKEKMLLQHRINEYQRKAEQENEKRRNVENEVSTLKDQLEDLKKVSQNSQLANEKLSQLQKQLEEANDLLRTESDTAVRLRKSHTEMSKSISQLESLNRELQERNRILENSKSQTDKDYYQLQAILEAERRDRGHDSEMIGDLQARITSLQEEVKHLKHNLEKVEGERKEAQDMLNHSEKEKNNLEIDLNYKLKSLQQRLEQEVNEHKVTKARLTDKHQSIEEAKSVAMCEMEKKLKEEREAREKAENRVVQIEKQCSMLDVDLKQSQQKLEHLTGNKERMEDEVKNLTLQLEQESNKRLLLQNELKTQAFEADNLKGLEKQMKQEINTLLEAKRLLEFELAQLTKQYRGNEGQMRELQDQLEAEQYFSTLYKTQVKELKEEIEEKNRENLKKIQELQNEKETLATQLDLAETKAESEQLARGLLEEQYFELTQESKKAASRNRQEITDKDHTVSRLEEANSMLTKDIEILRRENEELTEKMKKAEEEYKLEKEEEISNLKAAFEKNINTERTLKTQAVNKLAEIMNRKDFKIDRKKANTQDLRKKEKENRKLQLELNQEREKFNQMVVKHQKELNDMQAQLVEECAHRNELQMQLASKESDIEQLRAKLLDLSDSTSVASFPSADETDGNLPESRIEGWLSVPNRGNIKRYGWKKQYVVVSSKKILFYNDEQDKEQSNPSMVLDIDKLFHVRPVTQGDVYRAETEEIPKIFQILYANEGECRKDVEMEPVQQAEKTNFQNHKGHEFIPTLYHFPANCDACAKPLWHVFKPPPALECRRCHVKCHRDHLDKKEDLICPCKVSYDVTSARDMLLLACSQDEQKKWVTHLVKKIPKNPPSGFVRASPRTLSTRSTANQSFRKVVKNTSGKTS

## Cl.O=S(=O)(c1cccc2cnccc12)N1CCCNCC1 [Fasudil Hydrochloride, hexahydro-1-(5-isoquinolinesulfonyl)-1H-1,4-diazepine hydrochloride]
ROCK
  ROCK inhibitory activity relative to the inhibitory activity of protein kinase C: 28 times
[1]; 1 µM Fasudil Hydrochloride, ATP 50, 20, 10 and 5 µM, Lineweaver-Burk plot, 10 minutes at 30°C
  pKi: 6.04
[1]; based on the Ki values, protein kinase C Ki from Table 1 of Nature vol. 389, p. 991
  PKN inhibitory activity relative to the inhibitory activity of protein kinase C: ten times higher
[2]; [3]
  Hyperemia of the surface in the peritoneum: + (25-50% of surface in the peritoneum shows hyperemia)
  Total number of tumor nodules on peritoneum: 22
[2]; [4]
  Hyperemia of the surface in the peritoneum: ± (less than 25% of surface in the peritoneum shows hyperemia)
  Total number of tumor nodules on peritoneum: 11
[2]; [5]
  Hyperemia of the surface in the peritoneum: ± (less than 25% of surface in the peritoneum shows hyperemia)
  Total number of tumor nodules on peritoneum: 0
